Source: patent US20240327415A1, “Multicomponent Complexes, Including Salts, Crystalline Forms, and Hydrates and Solvates of ENT1 Inhibitors” (iTeos Belgium SA, priority 2023, published 2024)

Columns and labels:
Assay type in all cases: physicochemical
[1] = particle size distribution (Mastersizer 2000)
Procedure: In Example 5, the particle size distribution of solids was measured using a Mastersizer 2000 instrument and the method is detailed below.

[2] = Variable Temperature X-Ray Powder Diffraction (VT-XRPD); parameters: key: Crystalline Form 2 di(hydrogen sulfate) trihydrate; Crystalline Form 5 di(hydrogen sulfate); PC: Poorly Crystalline; conditions: second Heating, hold 30 min
Procedure: In the examples below, VT-XRPD analysis was carried out on a Philips X'Pert Pro Multipurpose diffractometer equipped with a temperature chamber. The samples were scanned between 4 and 36° 2θ using Cu K radiation (α1 λ=1.54060 Å; α2=1.54443 Å; β=1.39225 Å; α1: α2 ratio=0.5; most, if not all, B radiation is removed from the beam using an X-ray mirror) running in Bragg-Brentano geometry (step size 0.008° 2θ) using 40 kV/40 mA generator settings. Measurements were carried out from ambient temperature to an upper limit of 250° C., with a final measurement taken after cooling.
VT-XRPD analysis was carried out on a Philips X'Pert Pro Multipurpose diffractometer equipped with a temperature chamber. The samples were scanned between 4 and 36° 2θ using Cu K radiation (α1 λ=1.54060 Å; α2=1.54443 Å; β2=1.39225 Å; α1:α2 ratio=0.5; most, if not all, β radiation is removed from the beam using an X-ray mirror) running in Bragg-Brentano geometry (step size 0.008° 2θ) using 40 kV/40 mA generator settings. Measurements were carried out from ambient temperature to an upper limit of 250° C., with a final measurement taken after cooling.

[3] = thermodynamic solubility in 8 aqueous media (Example 19); conditions: for solubility in aqueous media: 24 hours at 37° C.
Procedure: UPLC System—UPLC: ThermoFisher Vanquish, Detector 1: UV detector set at 266 nm
UPLC Conditions— • Auto sampler temp.: RT • Column: Agilent Eclipse Plus C18 HD (50×2.1 mm; 1.8 μm) • Column temp: 40° C. • Gradient: Mobile phase A: 10 mM ammonium acetate in water • Mobile phase B: Acetonitrile • Flow: 0.6 mL/min • Gradient:
• Concentration: ca. 1.0 mg/mL • Solvent: ACN/water 50:50 • Injection volume: 1 μl • Retention time: 2.9 min
Example 19-Solubility of Crystalline Form 2 Compound 1 di(hydrogen sulfate) trihydrate: The thermodynamic solubility of crystalline Form 2 Compound 1 di(hydrogen sulfate) trihydrate was determined in 8 aqueous media (0.1M HCl, Phthalate buffer pH 3, acetate buffer pH 4.2, phosphate buffer pH 7, phosphate buffer pH 7.4, alkaline borate buffer pH 9.0, purified water EP/USP and phosphate water pH 12). Buffer solutions were prepared according to the United States Pharmacopeia USP 43 with modified buffer strength. Suspensions were prepared by addition of a single aliquot of the aqueous medium to the crystalline Form 2 Compound 1 di(hydrogen sulfate) trihydrate. The pH was titrated to the targeted pH with 1M NaOH. After incubation for 24 hours at 37° C., the pH was measured, and the mother liquors were filtered and analyzed by UPLC to determine the concentration of the free base. The residual solids after the solubility determination were ambient- and vacuum dried and analyzed by HT-XRPD.

[4] = pH solubility studies in buffers and biorelevant media (Example 16); parameters: key: M4: Crystalline Form 4 mono(hydrogen sulfate); Crystalline Form 2 di(hydrogen sulfate) trihydrate; Amorphous; conditions: pH 6.8 (Phosphate), 24 h
Procedure: Example 16—pH Solubility Studies—(1) Crystalline Form 2 Compound 1 di(hydrogen sulfate) trihydrate, (2) Crystalline Form 3 Compound 1 di(hydrogen sulfate), and (3) Crystalline Form 4 Compound 1 mono(hydrogen sulfate): pH solubility studies were carried out on the prepared crystalline Form 2 Compound 1 di(hydrogen sulfate) trihydrate, crystalline Form 3 Compound 1 di(hydrogen sulfate) and crystalline Form 4 Compound 1 mono(hydrogen sulfate) in the following media: (1) HCl/KCl, pH 1.2; (2) Acetate, pH 4.5; (3) Phosphate, pH 6.8; (4) FaSSIF; (5) FeSSIF; and (6) FaSSGF. Slurries of the hydrogen sulfate forms were prepared in the appropriate medium and stirred at 25° C. For the experiments in the buffer media, the pH of the slurry samples was measured and adjusted as required after 1 hour and 23 hours of the slurrying. Additional solid was added where dissolution was observed post-adjustment. The pH of the samples in the biorelevant media was measured at the 23 hour timepoint. No pH adjustment was made for the biorelevant media. After a total of 24 hours of slurrying, the mother liquors were extracted via centrifugation, and the concentrations and solution purity were determined by HPLC. The residual solids were isolated and analyzed by XRPD and are shown in FIG. 77, FIG. 78, and FIG. 79. The assessment was repeated for some of the samples, where required.

[5] = After complete equilibration, 3 days post-drying (moisture content = 6.07%)
[6] = Before complete equilibration, 24 hr post-drying (moisture content = 4.33%)

`CCCN1CCNCCCNC(=O)c2cc(OC)c(OC)c(c2)OCCC[C@@H](OC(=O)c2cc(OC)c(OC)c(OC)c2)CC1` showed a D10 [1, 5] of 6.32 μm, a D50 [1, 5] of 32.90 μm and a D90 [1, 5] of 84.73 μm. For the same molecule, the D10 [1, 6] was 17.596 μm, the D50 [1, 6] was 46.785 μm and the D90 [1, 6] was 109.799 μm. The “VT-XRPD Results” value ([2]; 120° C.) was 5, the “VT-XRPD Results” value ([2]; 130° C.) was 5 and the “solubility compared with the free base” value [3] was “more soluble than the free base”. The “solubility in aqueous media” value ([3]; high pH (12.0)) was “very slightly soluble”, the “solubility in aqueous media” value ([3]; low pH values (<3.0)) was “freely soluble” and the “solubility in aqueous media” value ([3]; pH 4.2) was “soluble”. The “solubility in aqueous media” value ([3]; pH 7.0) was “slightly soluble”, the “XRPD of residual solids” value ([4]; attempt 1, 25° C.) was “A” and the “XRPD of residual solids” value ([4]; attempt 2, 25° C.) was “A”.
